Assay results taken from article PMC8602723, “Comparative assessment of antimicrobial, antiradical and cytotoxic activities of cannabidiol and its propyl analogue cannabidivarin” (Scientific Reports, 2021).
Like-named read-outs stand apart in the source and are kept apart here.

How the values were obtained:
MDA-MB-231 cells [1] = test: MTT assay (mitochondrial metabolism); type: cell-based, human; conditions: for IC50: Homo sapiens, read-out: IC50 MTT assay
Text: (§1) MTT assay is the most commonly used method for high-throughput identification of the antiproliferative effects of compounds on cultured cells and is indirectly correlated with mitochondria-dependent apoptosis progression[59]–[61]. The production of reducing equivalents such as NADH in metabolically active cells is an indicator of “cell redox activity”, indirectly reflecting the number of viable cells[60],[61] and the mitochondrial metabolic rate in cells[62],[63].
(§2) A549, Caco-2, HepG2 and TelCOFS02MA cells (1 × 10^4 cells/well), and MDA-MB-231 cells (0.5 × 10^4 cells/well) were seeded in 100 µL of fresh medium into 96-well plates (TC-Plate 96 wells, Sarstedt, Verona, Italy) in quadruplicate for 24 h at 37 °C in a humidified atmosphere of 95% air plus 5% CO2. Then, the medium was removed and replaced with 200 µL of media with different concentrations of CBD (5–80 µM, dilution factor [DF] equal to 2) and CBDV (5.5–88 µM, DF = 2) chosen on the basis of range-finding tests (0.5, 5, and 50 mg/L). We chose 1.56–25 mg/L to be tested and, to make easier the comparison between the two cannabinoids activities, the concentrations were reported in [μM]. In all experiments, negative controls (wells containing cells exposed only to the medium) and solvent controls (wells containing cells exposed to 2.5% methanol) were included. The plates were incubated at 37 °C for three exposure times: 24, 48 and 72 h (different plates were prepared for each specific time point). Then, MTT solution (5 mg/mL) was added to each well, and the plates were re-incubated for 4 h at 37 °C. The culture medium was removed, and 2-propanol was used to dissolve formazan crystals. The absorbance of formazan was measured spectrophotometrically at 590 nm using an automated microplate reader (Synergy H1, Biotek, Winooski, USA). The results are reported as the percentages of cells with inhibited proliferation, as determined by the link between the inhibition of mitochondrial metabolic activity and proliferation. The results were calculated with the following formula:1 IC%=1-OD590sample/OD590negativecontrol·100
(§3) Furthermore, IC50 values (concentrations of the sample used to obtain an inhibition of 50% of cell growth/metabolic activity) were calculated.
(§4) All results from five independent experiments are expressed as the IC50 or EC50 as determined by analysis with Prism 5 software (GraphPad Inc., San Diego, CA, USA) and nonlinear regression (log agonist vs. normalized response-variable slope) with a 95% confidence range. Lowest observed adverse effect concentrations (LOAECs) were calculated by one-way ANOVA and Dunnett’s comparison test. Differences compared to the controls were considered significant as follows: *p < 0.05, **p < 0.001 and ***p < 0.0001.

TelCOFS02MA cells = test: MTT assay (mitochondrial metabolism); type: cell-based, human; conditions: for IC50: Homo sapiens, read-out: IC50 MTT assay
Text: as §1, §2, §3, §4

Caco-2 cells [2] = test: MTT assay (mitochondrial metabolism); type: cell-based, human; conditions: for LOAEC MTT assay: Caco-2, same value after each exposure time (24, 48, 72 h); for IC50: Homo sapiens, read-out: IC50 MTT assay
Text: as §1, §2, §3, §4

MDA-MB-231 cells [3] = test: LDH assay (plasma membrane damage); type: cell-based; conditions: Homo sapiens, read-out: IC50 LDH assay
Method: (§5) LDH assay is a high-throughput method based on the release of the LDH cytoplasmic enzyme from the cytosol into the extracellular space when the plasma membrane is damaged[29],[30]. Plasma membrane damage related to the amount of lysed cells was monitored by LDH assay, and the results were used for indirectly detecting the necrosis correlated to the leakage of the cytosolic enzyme due the loss of membrane permeability control[29],[30]. This assay was performed with the protocol described by Lehmann and colleagues.
(§6) Briefly, 1 × 10^4 A549 and Caco-2 cells and 2 × 10^4 HepG2, MDA-MB-231 and TelCOFS02MA cells were seeded in 100 µL of 1% FBS-fresh medium in each well of 96-well plates and incubated for 24 h at 37 °C with 95% humidity and 5% CO2. Then, the medium was removed and replaced with 100 µL of medium with different concentrations of CBD and CBDV, which were chosen on the basis of range-finding tests (as previously indicated). The plates were incubated at 37 °C for 72 h. In all experiments, the background control (wells with medium and without cells to obtain information about the LDH activity in the assay medium), low control (wells containing cells exposed only to the medium to determine spontaneous LDH release), high control (wells containing cells exposed to 2% Triton-X100 for 10 min before performing the assay to determine maximum LDH release), and solvent controls (2.5% methanol) were included. One hundred microlitres of supernatant was removed carefully from each well and transferred into corresponding wells in optically clear 96-well flat bottom microplates. One hundred microlitres of freshly prepared reaction mixture (Diaphorase (Catalyst)/NAD^+ /INT/sodium lactate) was added to each well and incubated for 30 min at 20 °C in darkness. Thus, NAD^+ was reduced to NADH/H^+ by the LDH-catalysed conversion of lactate to pyruvate. Then, the catalyst transferred H/H^+ from NADH/H^+ to the tetrazolium salt INT, which was reduced to formazan. To arrest the reaction, 50 µL/well of 1 N HCl was added. The spectrophotometric absorbance was determined at 492 nm. The absorbance of the background control wells was subtracted from all other values.
(§7) The results are reported as percentages of cytotoxicity, which is linked to the percentage of LDH released from damaged plasma membranes, calculated as follows:3 IC%=OD492sample-OD492lowcontrol/OD492highcontrol-OD492lowcontrol·100
(§8) IC50 values (concentrations of the sample to obtain 50% cytotoxicity) were calculated.
as §4

A549 cells = test: LDH assay (plasma membrane damage); type: cell-based; conditions: Homo sapiens, read-out: IC50 LDH assay
Method: as §5, §6, §7, §8, §4

Hep G2 cells = test: LDH assay (plasma membrane damage); type: cell-based; conditions: Homo sapiens, read-out: IC50 LDH assay
Method: as §5, §6, §7, §8, §4

Caco-2 cells [4] = test: LDH assay (plasma membrane damage); type: cell-based; conditions: Homo sapiens, read-out: IC50 LDH assay
Method: as §5, §6, §7, §8, §4

[5] = MDA-MB-231, 72 h exposure, 95% confidence interval in brackets
[6] = Caco-2, 72 h exposure, 95% confidence interval in brackets

Q: Which IC50 (MDA-MB-231 cells [1]; MDA-MB-231, 72 h) does the source give for C=C(C)[C@@H]1CCC(C)=C[C@H]1c1c(O)cc(CCC)cc1O [CBDV, cannabidivarin] here?
A: 38.1 µM

Q: And the “LOAEC MTT assay” value (MDA-MB-231 cells [1]; MDA-MB-231, 24 h)?
A: 44 µM

Q: And the “LOAEC MTT assay” value (MDA-MB-231 cells [1]; MDA-MB-231, 48 h)?
A: 22 µM

Q: And the IC50 (TelCOFS02MA cells; 72 h)?
A: 42.3 µM

Q: What about the “LOAEC MTT assay” value (TelCOFS02MA cells; TelCOFS02MA, 24 h) of the same compound?
A: 88 µM

Q: What about the “LOAEC MTT assay” value (TelCOFS02MA cells; TelCOFS02MA, 48 h) of the same compound?
A: 44 µM

Q: What about the “LOAEC MTT assay” value (TelCOFS02MA cells; TelCOFS02MA, 72 h) of the same compound?
A: 11 µM

Q: And the “LOAEC MTT assay” value (Caco-2 cells [2])?
A: 44 µM

Q: And the IC50 (Caco-2 cells [2]; Caco-2, 72 h)?
A: 46 µM

Q: What about the IC50 (MDA-MB-231 cells [3]; MDA-MB-231, 72 h) of the same compound?
A: 33.8 µM

Q: And the IC50 (A549 cells; A549, 72 h)?
A: 26.3 µM

Q: What about the IC50 (Hep G2 cells; HepG2, 72 h) of the same compound?
A: 21.2 µM

Q: And the IC50 (Caco-2 cells [4]; Caco-2, 72 h)?
A: 29.1 µM

Q: Which results are given for C=C(C)[C@@H]1CCC(C)=C[C@H]1c1c(O)cc(CCCCC)cc1O [CBD, Cannabidiol]?
A: IC50 (MDA-MB-231 cells [1]; [5]): 25.8 µM; LOAEC MTT assay (MDA-MB-231 cells [1]; MDA-MB-231, 24 h): 20 µM; LOAEC MTT assay (MDA-MB-231 cells [1]; MDA-MB-231, 48 h): 10 µM; IC50 (TelCOFS02MA cells; TelCOFS02MA, 72 h exposure, 95% confidence interval in brackets): 31.9 µM; LOAEC MTT assay (TelCOFS02MA cells; TelCOFS02MA, same value for the entire treatment period (24, 48, 72 h)): 20 µM; LOAEC MTT assay (Caco-2 cells [2]): 20 µM; IC50 (Caco-2 cells [2]; [6]): 35.2 µM; IC50 (MDA-MB-231 cells [3]; [5]): 22.1 µM; IC50 (A549 cells; A549, 72 h exposure, 95% confidence interval in brackets): 24 µM; IC50 (Hep G2 cells; HepG2, Hep G2, 72 h exposure, 95% confidence interval in brackets): 18.1 µM; IC50 (Caco-2 cells [4]; [6]): 22.8 µM
